Source: US8247211B2, “Glycopeptide antibiotics” (American Cyanamid Company, priority 2001, dated 2012)
≈ marks a conversion by molar mass, not a printed value.

Tests used:
Test in all cases: In vitro antibacterial evaluation: minimum inhibitory concentration (MIC), broth dilution method
Assay type in all cases: cell-based
Enterococcus sp. = conditions: 18 hours at 35° C.
How it was run: (§1)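 Following NCCLS approved standard M7-A2, compounds are serially diluted from 64 to 0.06 μg/mL in Muller-Hinton II […] and inoculated at 5×10^5 CFU/mL; the MIC is the minimum concentration at which growth is inhibited.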

Escherichia coli = conditions: 18 hours at 35° C.
How it was run: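 Inoculum: 5×10^5 CFU/mL. Range: 64-0.06 μg/mL. Medium: Muller-Hinton II […]; NCCLS M7-A2 broth dilution. Endpoint: lowest concentration inhibiting growth. Strains include methicillin-, penicillin- and/or vancomycin-resistant clinical isolates.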

Staphylococcus sp. = conditions: for MIC Staphylococcus aureus (ATCC 29213): strain ATCC 29213; for MIC Staphylococcus aureus (GC 1131): strain GC 1131; for MIC Staphylococcus aureus (GC 4541): strain GC 4541; for MIC Staphylococcus aureus (GC 4542): strain GC 4542; for MIC Staphylococcus aureus-SMITH (GC 4543): strain GC 4543; for MIC Staphylococcus aureus (GC 4544): strain GC 4544; for MIC Staphylococcus aureus (GC 4545): strain GC 4545; for MIC Staphylococcus haemolyticus (GC 4546): strain GC 4546; for MIC Coagulase Negative Staphylococcus (GC 4547): strain GC 4547; for MIC Coagulase Negative Staphylococcus (GC 4548): strain GC 4548; for MIC Coagulase Negative Staphylococcus (GC 4549): strain GC 4549; for MIC Coagulase Negative Staphylococcus (GC 4551): strain GC 4551; for MIC Coagulase Negative Staphylococcus (ID-3941): strain ID-3941
How it was run: as §1

Streptococcus sp. = conditions: 18 hours at 35° C.
How it was run: as §1

[1] = broth dilution, 18 hours at 35° C.
[2] = broth dilution, inoculum 5×10^5 CFU/mL

With CC(c1ccccc1)C1NC(=O)CNC(=O)C(CO)NC(=O)C(C(O)C2CNC(=N)N2C2OC(CO)C(O)C(O)C2O)NC(=O)C(C(O)C2CNC(=N)N2)NC(=O)C(Cc2ccc(OC3OC(COC(=O)OCc4ccccc4)C(OC4OC(CO)C(O)C(O)C4O)C(O)C3O)cc2)NC1=O (stereo not drawn) [Example 101, Cyclo[glycyl-β-methylphenylalanyl-O-[4-O-hexopyranosyl-6-O-[(phenylmethoxy)carbonyl]-hexopyranosyl]tyrosyl-3-(2-iminoimidazolidin-4-yl)seryl-3-(3-hexopyranosyl-2-iminoimidazolidin-4-1/1)serylseryl]] the “MIC Enterococccus avium (GC 4558)” value (Enterococcus sp.; broth dilution, 5×10^5 CFU/mL) was 32 µg/mL (≈ 22.4 µM), the “MIC Enterococccus faecalis (ATCC 29212)” value (Enterococcus sp.; broth dilution, 5×10^5 CFU/mL) was 32 µg/mL (≈ 22.4 µM) and the “MIC Enterococccus faecalis (GC 4552)” value (Enterococcus sp.; broth dilution, 5×10^5 CFU/mL) was 64 µg/mL (≈ 44.8 µM). For the same compound, the “MIC Enterococccus faecalis (GC 4553)” value (Enterococcus sp.; broth dilution, 5×10^5 CFU/mL) was 32 µg/mL (≈ 22.4 µM), the “MIC Enterococccus faecalis (GC 4554)” value (Enterococcus sp.; broth dilution, 5×10^5 CFU/mL) was 64 µg/mL (≈ 44.8 µM) and the “MIC Enterococccus faecium (GC 2243)” value (Enterococcus sp.; broth dilution, 5×10^5 CFU/mL) was 32 µg/mL (≈ 22.4 µM). For the same compound, the “MIC Enterococccus faecium (GC 4556)” value (Enterococcus sp.; broth dilution, 5×10^5 CFU/mL) was 32 µg/mL (≈ 22.4 µM), the “MIC Enterococccus faecium (GC 4557)” value (Enterococcus sp.; broth dilution, 5×10^5 CFU/mL) was 2 µg/mL (≈ 1.4 µM) and the “MIC Enterococcus faecalis (GC 2242)” value (Enterococcus sp.; broth dilution, 5×10^5 CFU/mL) was 16 µg/mL (≈ 11.2 µM). For the same compound, the “MIC Escherichia coli (ATCC 25922)” value (Escherichia coli; 5×10^5 CFU/mL) was >64 µg/mL, the “MIC Staphylococcus aureus (ATCC 29213)” value (Staphylococcus sp.) was 4 µg/mL (≈ 2.8 µM) and the “MIC Staphylococcus aureus (GC 1131)” value (Staphylococcus sp.) was 4 µg/mL (≈ 2.8 µM). The “MIC Staphylococcus aureus (GC 4541)” value (Staphylococcus sp.) was 4 µg/mL (≈ 2.8 µM), the “MIC Staphylococcus aureus (GC 4542)” value (Staphylococcus sp.) was 8 µg/mL (≈ 5.6 µM) and the “MIC Staphylococcus aureus-SMITH (GC 4543)” value (Staphylococcus sp.; 18 hours at 35° C.) was 4 µg/mL (≈ 2.8 µM). The “MIC Staphylococcus aureus-SMITH (GC 4543)” value (Staphylococcus sp.; [1]) was 4 µg/mL (≈ 2.8 µM), the “MIC Staphylococcus aureus (GC 4544)” value (Staphylococcus sp.) was 8 µg/mL (≈ 5.6 µM) and the “MIC Staphylococcus aureus (GC 4545)” value (Staphylococcus sp.) was 4 µg/mL (≈ 2.8 µM). The “MIC Staphylococcus haemolyticus (GC 4546)” value (Staphylococcus sp.) was 4 µg/mL (≈ 2.8 µM), the “MIC Staphylococcus haemolyticus (GC 4546)” value (Staphylococcus sp.; [1]) was 4 µg/mL (≈ 2.8 µM) and the “MIC Coagulase Negative Staphylococcus (GC 4547)” value (Staphylococcus sp.) was 2 µg/mL (≈ 1.4 µM). For the same compound, the “MIC Coagulase Negative Staphylococcus (GC 4547)” value (Staphylococcus sp.; [1]) was 2 µg/mL (≈ 1.4 µM), the “MIC Coagulase Negative Staphylococcus (GC 4548)” value (Staphylococcus sp.) was 2 µg/mL (≈ 1.4 µM) and the “MIC Coagulase Negative Staphylococcus (GC 4548)” value (Staphylococcus sp.; [1]) was 2 µg/mL (≈ 1.4 µM). The “MIC Coagulase Negative Staphylococcus (GC 4549)” value (Staphylococcus sp.) was 1 µg/mL (≈ 0.7 µM), the “MIC Coagulase Negative Staphylococcus (GC 4549)” value (Staphylococcus sp.; [1]) was 1 µg/mL (≈ 0.7 µM) and the “MIC Coagulase Negative Staphylococcus (GC 4551)” value (Staphylococcus sp.) was 8 µg/mL (≈ 5.6 µM). For the same compound, the “MIC Coagulase Negative Staphylococcus (GC 4551)” value (Staphylococcus sp.; [1]) was 8 µg/mL (≈ 5.6 µM), the “MIC Coagulase Negative Staphylococcus (ID-3941)” value (Staphylococcus sp.) was 1 µg/mL (≈ 0.7 µM) and the “MIC Coagulase Negative Staphylococcus (ID-3941)” value (Staphylococcus sp.; [1]) was 1 µg/mL (≈ 0.7 µM). The “MIC Streptococcus agalactiae (GC 4564)” value (Streptococcus sp.; broth dilution, 5×10^5 CFU/mL) was 2 µg/mL (≈ 1.4 µM), the “MIC Streptococcus pneumoniae (GC 4565)” value (Streptococcus sp.; broth dilution, 5×10^5 CFU/mL) was <0.5 µg/mL and the “MIC Streptococcus pyogenes (ID-3187)” value (Streptococcus sp.; broth dilution, 5×10^5 CFU/mL) was 2 µg/mL (≈ 1.4 µM).
For CC(c1ccccc1)C1NC(=O)CNC(=O)C(CO)NC(=O)C(C(O)C2CN(Cc3ccc(C(F)(F)F)cc3)C(=N)N2C2OC(CO)C(O)C(O)C2O)NC(=O)C(C(O)C2CNC(=N)N2)NC(=O)C(Cc2ccc(OC3OC(CO)C(OC4OC5COC6(OC5C(O)C4O)C4CC5CC(C4)CC6C5)C(O)C3O)cc2)NC1=O (centres unmarked) [Example 226], the “MIC Enterococcus avium (GC 4558)” value (Enterococcus sp.; Enterococcus avium (GC 4558)) was 8 µg/mL (≈ 5.05 µM), the “MIC Enterococcus faecalis (ATCC 29212)” value (Enterococcus sp.; Enterococcus faecalis (ATCC 29212)) was 32 µg/mL (≈ 20.2 µM) and the “MIC Enterococcus faecalis (GC 2242)” value (Enterococcus sp.; Enterococcus faecalis (GC 2242)) was 16 µg/mL (≈ 10.1 µM). For the same compound, the “MIC Enterococcus faecalis (GC 2691)” value (Enterococcus sp.; Enterococcus faecalis (GC 2691)) was 32 µg/mL (≈ 20.2 µM), the “MIC Enterococcus faecalis (GC 3059)” value (Enterococcus sp.; Enterococcus faecalis (GC 3059)) was 32 µg/mL (≈ 20.2 µM) and the “MIC Enterococcus faecalis (GC 4552)” value (Enterococcus sp.; Enterococcus faecalis (GC 4552)) was 32 µg/mL (≈ 20.2 µM). The “MIC Enterococcus faecalis (GC 4553)” value (Enterococcus sp.; Enterococcus faecalis (GC 4553)) was 16 µg/mL (≈ 10.1 µM), the “MIC Enterococcus faecalis (GC 4554)” value (Enterococcus sp.; Enterococcus faecalis (GC 4554)) was 32 µg/mL (≈ 20.2 µM) and the “MIC Enterococcus faecalis (GC 6189)” value (Enterococcus sp.; Enterococcus faecalis (GC 6189)) was 32 µg/mL (≈ 20.2 µM). The “MIC Enterococcus faecium (GC 2243)” value (Enterococcus sp.; Enterococcus faecium (GC 2243)) was 16 µg/mL (≈ 10.1 µM), the “MIC Enterococcus faecium (GC 4556)” value (Enterococcus sp.; Enterococcus faecium (GC 4556)) was 32 µg/mL (≈ 20.2 µM) and the “MIC Enterococcus faecium (GC 4557)” value (Enterococcus sp.; Enterococcus faecium (GC 4557)) was 2 µg/mL (≈ 1.26 µM). For the same compound, the “MIC Enterococcus avium (GC 4558)” value (Enterococcus sp.; [2]) was 8 µg/mL (≈ 5.05 µM), the “MIC Enterococcus faecalis (ATCC 29212)” value (Enterococcus sp.; [2]) was 32 µg/mL (≈ 20.2 µM) and the “MIC Enterococcus faecalis (GC 2242)” value (Enterococcus sp.; [2]) was 16 µg/mL (≈ 10.1 µM). The “MIC Enterococcus faecalis (GC 2691)” value (Enterococcus sp.; [2]) was 32 µg/mL (≈ 20.2 µM), the “MIC Enterococcus faecalis (GC 3059)” value (Enterococcus sp.; [2]) was 32 µg/mL (≈ 20.2 µM) and the “MIC Enterococcus faecalis (GC 4552)” value (Enterococcus sp.; [2]) was 32 µg/mL (≈ 20.2 µM). For the same compound, the “MIC Enterococcus faecalis (GC 4553)” value (Enterococcus sp.; [2]) was 16 µg/mL (≈ 10.1 µM), the “MIC Enterococcus faecalis (GC 4554)” value (Enterococcus sp.; [2]) was 32 µg/mL (≈ 20.2 µM) and the “MIC Enterococcus faecalis (GC 6189)” value (Enterococcus sp.; [2]) was 32 µg/mL (≈ 20.2 µM). For the same compound, the “MIC Enterococcus faecium (GC 2243)” value (Enterococcus sp.; [2]) was 16 µg/mL (≈ 10.1 µM), the “MIC Enterococcus faecium (GC 4556)” value (Enterococcus sp.; [2]) was 32 µg/mL (≈ 20.2 µM) and the “MIC Enterococcus faecium (GC 4557)” value (Enterococcus sp.; [2]) was 2 µg/mL (≈ 1.26 µM). The “MIC Escherichia coli (GC 4560)” value (Escherichia coli; Escherichia coli (GC 4560)) was 4 µg/mL (≈ 2.52 µM), the “MIC Staphylococcus aureus (ATCC 29213)” value (Staphylococcus sp.) was 16 µg/mL (≈ 10.1 µM) and the “MIC Staphylococcus aureus (GC 1131)” value (Staphylococcus sp.) was 16 µg/mL (≈ 10.1 µM). For the same compound, the “MIC Staphylococcus aureus (GC 3051)” value (Staphylococcus sp.; strain GC 3051) was 16 µg/mL (≈ 10.1 µM), the “MIC Staphylococcus aureus (GC 3053)” value (Staphylococcus sp.; strain GC 3053) was 16 µg/mL (≈ 10.1 µM) and the “MIC Staphylococcus aureus (GC 4541)” value (Staphylococcus sp.) was 8 µg/mL (≈ 5.05 µM). The “MIC Staphylococcus aureus (GC 4542)” value (Staphylococcus sp.) was 16 µg/mL (≈ 10.1 µM), the “MIC Staphylococcus aureus-SMITH (GC 4543)” value (Staphylococcus sp.) was 8 µg/mL (≈ 5.05 µM) and the “MIC Staphylococcus aureus (GC 4544)” value (Staphylococcus sp.) was 16 µg/mL (≈ 10.1 µM). The “MIC Staphylococcus aureus (GC 4545)” value (Staphylococcus sp.) was 16 µg/mL (≈ 10.1 µM), the “MIC Staphylococcus haemolyticus (GC 4546)” value (Staphylococcus sp.) was 8 µg/mL (≈ 5.05 µM) and the “MIC Coagulase Negative Staphylococcus (GC 4547)” value (Staphylococcus sp.) was 8 µg/mL (≈ 5.05 µM). For the same compound, the “MIC Coagulase Negative Staphylococcus (GC 4548)” value (Staphylococcus sp.) was 8 µg/mL (≈ 5.05 µM), the “MIC Coagulase Negative Staphylococcus (GC 4549)” value (Staphylococcus sp.) was 16 µg/mL (≈ 10.1 µM) and the “MIC Coagulase Negative Staphylococcus (GC 4551)” value (Staphylococcus sp.) was 8 µg/mL (≈ 5.05 µM). For the same compound, the “MIC Coagulase Negative Staphylococcus (GC 6257)” value (Staphylococcus sp.; strain GC 6257) was 2 µg/mL (≈ 1.26 µM), the “MIC Streptococcus agalactiae (GC 4564)” value (Streptococcus sp.; Streptococcus agalactiae (GC 4564)) was 4 µg/mL (≈ 2.52 µM) and the “MIC Streptococcus pneumoniae (ATCC 6301)” value (Streptococcus sp.; Streptococcus pneumoniae (ATCC 6301)) was 4 µg/mL (≈ 2.52 µM). The “MIC Streptococcus pneumoniae (GC 1894)” value (Streptococcus sp.; Streptococcus pneumoniae (GC 1894)) was 0.5 µg/mL (≈ 0.315 µM), the “MIC Streptococcus pneumoniae (GC 4565)” value (Streptococcus sp.; Streptococcus pneumoniae (GC 4565)) was 4 µg/mL (≈ 2.52 µM) and the “MIC Streptococcus pyogenes (GC 4563)” value (Streptococcus sp.; Streptococcus pyogenes (GC 4563)) was 2 µg/mL (≈ 1.26 µM). For the same compound, the “MIC Streptococcus agalactiae (GC 4564)” value (Streptococcus sp.; [2]) was 4 µg/mL (≈ 2.52 µM), the “MIC Streptococcus pneumoniae (ATCC 6301)” value (Streptococcus sp.; [2]) was 4 µg/mL (≈ 2.52 µM) and the “MIC Streptococcus pneumoniae (GC 1894)” value (Streptococcus sp.; [2]) was 0.5 µg/mL (≈ 0.315 µM). For the same compound, the “MIC Streptococcus pneumoniae (GC 4565)” value (Streptococcus sp.; [2]) was 4 µg/mL (≈ 2.52 µM) and the “MIC Streptococcus pyogenes (GC 4563)” value (Streptococcus sp.; [2]) was 2 µg/mL (≈ 1.26 µM).
